# In ChEMBL document CHEMBL1201862, “PubChem BioAssay data set” (2004):
# Activity calls are given as the source filed them.
# Columns and labels:
# [1] = target: Dual specificity tyrosine-phosphorylation-regulated kinase 1A (Rattus norvegicus, UniProt Q63470); format: biochemical, Homo sapiens
# [2] = target: T1, Cysteine protease ATG4B (Homo sapiens, UniProt Q9Y4P1); format: functional;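 further: Fluorescence-based dose-response confirmation assay measuring inhibition of ATG4B activity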
# T1 sequence (Q9Y4P1 whole entry): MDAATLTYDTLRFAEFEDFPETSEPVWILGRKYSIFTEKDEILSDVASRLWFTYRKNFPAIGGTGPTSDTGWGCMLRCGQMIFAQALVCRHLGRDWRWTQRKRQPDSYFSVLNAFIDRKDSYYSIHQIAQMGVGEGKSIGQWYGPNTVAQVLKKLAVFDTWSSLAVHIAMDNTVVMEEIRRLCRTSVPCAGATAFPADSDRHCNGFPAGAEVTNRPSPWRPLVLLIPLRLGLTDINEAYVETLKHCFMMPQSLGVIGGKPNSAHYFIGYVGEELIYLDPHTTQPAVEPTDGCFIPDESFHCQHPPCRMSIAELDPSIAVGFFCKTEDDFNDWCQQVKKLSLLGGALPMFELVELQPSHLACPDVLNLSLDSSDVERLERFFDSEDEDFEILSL
# [3] = test system: Streptococcus; assay: Group A Streptococcus viability loss, dose response, counter-screen for streptokinase expression inhibitor project, luminescence, BacTiterGlo (AID 1915); format: functional, organism-based;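 further: potency for reduction of bacterial viability or growth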
# [4] = target: T2, Streptokinase A (Streptococcus pyogenes serotype M1, UniProt P10520); assay: S. pyogenes streptokinase expression inhibitors, potency, dose response, plasminogen activation absorbance, OD405 (AID 1914); format: functional, Streptococcus pyogenes M1 GAS;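 further: secreted streptokinase activity via plasminogen activation per viability signal from cell pellet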
# T2 sequence (P10520 whole entry): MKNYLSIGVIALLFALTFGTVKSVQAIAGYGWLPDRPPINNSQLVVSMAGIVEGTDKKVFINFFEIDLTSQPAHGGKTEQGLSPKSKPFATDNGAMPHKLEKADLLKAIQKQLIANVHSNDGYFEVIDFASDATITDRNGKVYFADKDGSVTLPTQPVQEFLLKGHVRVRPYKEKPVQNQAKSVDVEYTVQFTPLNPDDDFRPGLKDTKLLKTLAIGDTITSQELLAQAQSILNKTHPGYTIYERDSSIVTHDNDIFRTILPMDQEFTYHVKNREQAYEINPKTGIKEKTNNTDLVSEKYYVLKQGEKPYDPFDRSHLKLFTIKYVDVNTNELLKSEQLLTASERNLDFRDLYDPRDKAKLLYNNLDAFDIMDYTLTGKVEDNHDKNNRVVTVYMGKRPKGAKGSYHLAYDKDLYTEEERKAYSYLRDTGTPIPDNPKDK
# [5] = target: T3, Corticotropin-releasing factor receptor 2/Corticotropin-releasing factor-binding protein (Homo sapiens, UniProt P24387+Q13324); assay: activators of CRF receptor 2 with binding protein – uHTS hits, confirmation (AID 602473); format: functional; conditions: read-out: EC50_Mean
# T3 sequence (Q13324 whole entry): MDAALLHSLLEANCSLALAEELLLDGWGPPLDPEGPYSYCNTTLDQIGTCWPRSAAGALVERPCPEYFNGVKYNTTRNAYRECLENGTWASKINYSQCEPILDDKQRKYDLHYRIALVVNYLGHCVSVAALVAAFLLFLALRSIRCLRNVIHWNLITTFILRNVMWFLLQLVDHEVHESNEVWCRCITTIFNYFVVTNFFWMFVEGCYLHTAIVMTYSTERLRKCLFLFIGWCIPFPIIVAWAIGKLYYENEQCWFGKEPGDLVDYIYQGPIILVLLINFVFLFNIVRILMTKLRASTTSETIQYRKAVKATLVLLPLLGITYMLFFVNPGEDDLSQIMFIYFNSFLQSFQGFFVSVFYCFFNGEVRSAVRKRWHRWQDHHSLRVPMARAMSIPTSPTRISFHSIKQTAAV
# T3 sequence (P24387 whole entry): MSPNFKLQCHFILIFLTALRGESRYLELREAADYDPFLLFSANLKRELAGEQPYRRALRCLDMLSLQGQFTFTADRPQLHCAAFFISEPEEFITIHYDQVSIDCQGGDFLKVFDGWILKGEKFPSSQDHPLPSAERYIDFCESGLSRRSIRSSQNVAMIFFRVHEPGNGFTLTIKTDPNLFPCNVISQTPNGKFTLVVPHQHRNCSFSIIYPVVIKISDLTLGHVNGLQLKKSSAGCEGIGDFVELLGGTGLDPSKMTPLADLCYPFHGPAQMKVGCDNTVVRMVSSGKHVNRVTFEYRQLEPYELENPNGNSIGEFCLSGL
# [6] = test system: Streptococcus sp. 'group A'; assay: growth inhibition of control SK(-) GAS strain, dose response, counter-screen for streptokinase expression inhibitor project, luminescence, kanamycin, BacTiterGlo, confirmation (AID 1900); format: functional, organism-based
# [7] = target: Phospholipase A2 (Homo sapiens, UniProt P04054); format: functional;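 further: confirmatory dose-response counterscreen on phospholipase A2, testing hits that came from an ultra-high-throughput screen for ATG4B inhibitors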
# [8] = target: Genome polyprotein (dengue virus type 2, UniProt P29990); assay: Dengue-2 NS5 methyltransferase inhibitors, primary screen, biochemical, confirmation dose response (AID 588689); format: functional
# [9] = target: Heat shock protein HSP 90-alpha (Homo sapiens, UniProt P07900); format: functional, organism-based
# [10] = target: T4, Zinc finger protein mex-5 (Caenorhabditis elegans, UniProt Q9XUB2); assay: MEX-5/TCR-2 RNA interaction inhibitors, dose response, biochemical, C. elegans, fluorescence polarization (AID 1960)
# T4 sequence (Q9XUB2 whole entry): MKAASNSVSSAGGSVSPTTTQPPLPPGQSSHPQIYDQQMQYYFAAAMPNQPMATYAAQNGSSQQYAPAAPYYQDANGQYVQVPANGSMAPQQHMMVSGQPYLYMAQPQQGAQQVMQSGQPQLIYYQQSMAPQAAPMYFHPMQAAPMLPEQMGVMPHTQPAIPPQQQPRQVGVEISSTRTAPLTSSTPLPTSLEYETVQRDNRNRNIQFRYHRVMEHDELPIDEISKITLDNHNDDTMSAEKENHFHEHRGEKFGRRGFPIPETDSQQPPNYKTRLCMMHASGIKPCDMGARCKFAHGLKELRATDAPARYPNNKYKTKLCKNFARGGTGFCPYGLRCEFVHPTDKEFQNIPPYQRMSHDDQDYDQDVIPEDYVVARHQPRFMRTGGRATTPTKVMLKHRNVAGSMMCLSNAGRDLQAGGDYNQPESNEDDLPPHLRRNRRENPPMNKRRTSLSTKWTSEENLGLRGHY
# [11] = target: Large T antigen (Simian virus 40, UniProt P03070); format: functional, Betapolyomavirus macacae;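 further: Confirmatory-stage PubChem screen for compounds that inhibit SV40 T antigen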
# [12] = target: T5, High affinity choline transporter 1 (Homo sapiens, UniProt Q9GZV3); assay: CHT inhibitors, dose response, cell-based, 5-point CRC, membrane potential dye (AID 504840); format: functional
# T5 sequence (Q9GZV3 whole entry): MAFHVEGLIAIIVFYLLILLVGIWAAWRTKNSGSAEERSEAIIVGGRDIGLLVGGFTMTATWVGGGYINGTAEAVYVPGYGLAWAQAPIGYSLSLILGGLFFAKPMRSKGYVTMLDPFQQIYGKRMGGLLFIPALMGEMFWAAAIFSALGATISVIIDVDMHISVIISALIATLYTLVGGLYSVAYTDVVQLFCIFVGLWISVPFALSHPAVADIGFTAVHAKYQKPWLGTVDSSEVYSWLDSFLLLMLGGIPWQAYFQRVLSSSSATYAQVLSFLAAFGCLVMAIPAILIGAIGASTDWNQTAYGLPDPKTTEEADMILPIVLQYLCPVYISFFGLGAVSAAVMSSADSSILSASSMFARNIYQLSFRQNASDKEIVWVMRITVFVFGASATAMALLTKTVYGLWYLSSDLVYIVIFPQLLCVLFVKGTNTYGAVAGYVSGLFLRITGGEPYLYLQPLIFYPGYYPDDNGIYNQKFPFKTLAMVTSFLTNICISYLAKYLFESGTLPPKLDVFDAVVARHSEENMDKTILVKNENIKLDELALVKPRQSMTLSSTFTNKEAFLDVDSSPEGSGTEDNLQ
# [13] = target: T6, Endoribonuclease toxin MazF (Escherichia coli K-12, UniProt P0AE70); assay: MazF toxin RNase activators, dose response, biochemical, fluorescence, single-stranded RNA substrate, uHTS hits (AID 588481); format: functional
# T6 sequence (P0AE70 whole entry): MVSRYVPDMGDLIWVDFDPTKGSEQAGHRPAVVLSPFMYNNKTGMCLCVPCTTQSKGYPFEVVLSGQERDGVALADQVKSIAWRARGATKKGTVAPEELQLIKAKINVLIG
# [14] = target: T6, Endoribonuclease toxin MazF; assay: fluorescent RNA oligo signal without MazF, dose response, counter-screen for MazEF activator project, biochemical, fluorescence, single-stranded RNase substrate (AID 588502); format: functional
# [15] = target: Prothrombin (Homo sapiens, UniProt P00734); assay: Thrombin 1536 HTS Dose Response Confirmation. [Related pubchem assays: 1046 (Thrombin 1536 HTS; hits were confirmed in this assay)]; format: functional
# [16] = C. albicans growth with fluconazole, confirmation, fluorescence, retest (AID 2467); format: functional, cell-based
# [17] = target: T5, High affinity choline transporter 1; assay: CHT inhibitors, dose response, cell-based, 10-point CRC, membrane potential dye (AID 588401); format: functional;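 further: membrane potential dye fluorescence of choline-evoked depolarization via CHT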
# [18] = NIH-3T3 fibroblast cytotoxicity, dose response, cytotoxicity control, cell-based, fluorescence, Alamar Blue, secondary assay (AID 2327); format: functional;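 further: NIH-3T3 mouse fibroblasts cultured with fluconazole at 8 µg/mL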
# [19] = target: T7, Long-chain-fatty-acid--AMP ligase FadD28 (Mycobacterium tuberculosis, UniProt P9WQ59); assay: Fluorescence polarization aasay to screen for inhibitors that compete for the binding of FadD28 to a bisubstrate Measured in Biochemical System Using Plate Reader - 2147-01_Inhibitor_Dose_CherryPick_Activity.; format: functional, Mycobacterium tuberculosis H37Rv
# T7 sequence (P9WQ59 whole entry): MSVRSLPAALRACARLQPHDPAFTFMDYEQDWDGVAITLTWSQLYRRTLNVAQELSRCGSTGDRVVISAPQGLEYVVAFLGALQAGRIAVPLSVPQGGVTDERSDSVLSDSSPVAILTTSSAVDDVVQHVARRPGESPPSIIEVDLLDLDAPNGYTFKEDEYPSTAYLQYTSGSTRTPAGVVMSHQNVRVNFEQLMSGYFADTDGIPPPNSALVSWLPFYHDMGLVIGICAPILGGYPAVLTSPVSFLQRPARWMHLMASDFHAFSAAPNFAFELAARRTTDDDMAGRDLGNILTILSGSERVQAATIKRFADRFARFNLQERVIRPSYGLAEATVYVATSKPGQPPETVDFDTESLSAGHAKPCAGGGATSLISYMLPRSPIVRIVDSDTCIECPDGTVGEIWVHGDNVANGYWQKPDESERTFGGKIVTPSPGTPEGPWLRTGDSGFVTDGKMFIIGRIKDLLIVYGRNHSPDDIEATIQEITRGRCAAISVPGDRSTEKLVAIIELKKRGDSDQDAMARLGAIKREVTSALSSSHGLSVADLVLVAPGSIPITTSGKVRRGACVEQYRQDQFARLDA
# [20] = target: T8, Rac GTPase-activating protein 1 (Homo sapiens, UniProt Q9H0H5); assay: MgcRacGAP GTPase-activating activity inhibitors, confirmation, biochemical, ADP Hunter fluorescence, primary and confirmatory (AID 624330); format: functional
# T8 sequence (Q9H0H5 whole entry): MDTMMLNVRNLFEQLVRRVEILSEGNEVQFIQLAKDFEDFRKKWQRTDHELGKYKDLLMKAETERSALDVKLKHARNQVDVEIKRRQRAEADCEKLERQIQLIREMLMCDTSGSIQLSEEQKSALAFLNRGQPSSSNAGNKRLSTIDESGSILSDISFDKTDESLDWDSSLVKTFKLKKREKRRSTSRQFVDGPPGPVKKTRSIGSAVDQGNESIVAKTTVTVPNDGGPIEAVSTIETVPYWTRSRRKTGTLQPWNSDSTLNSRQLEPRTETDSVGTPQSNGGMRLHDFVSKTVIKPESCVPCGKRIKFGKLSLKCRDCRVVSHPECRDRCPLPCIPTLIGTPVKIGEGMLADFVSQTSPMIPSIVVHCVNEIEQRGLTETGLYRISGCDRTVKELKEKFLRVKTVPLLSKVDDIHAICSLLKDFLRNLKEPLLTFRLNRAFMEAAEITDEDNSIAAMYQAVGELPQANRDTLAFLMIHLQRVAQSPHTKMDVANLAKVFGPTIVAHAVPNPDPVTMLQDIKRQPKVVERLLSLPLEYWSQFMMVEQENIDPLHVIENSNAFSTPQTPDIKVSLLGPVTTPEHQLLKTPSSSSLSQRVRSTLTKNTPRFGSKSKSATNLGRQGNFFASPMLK
# Sequence of Phospholipase A2 (P04054 whole entry): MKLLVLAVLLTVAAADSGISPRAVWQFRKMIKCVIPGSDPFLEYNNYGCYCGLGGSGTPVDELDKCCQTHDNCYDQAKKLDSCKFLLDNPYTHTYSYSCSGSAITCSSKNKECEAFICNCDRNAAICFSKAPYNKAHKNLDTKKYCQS
# Sequence of Large T antigen (P03070 whole entry): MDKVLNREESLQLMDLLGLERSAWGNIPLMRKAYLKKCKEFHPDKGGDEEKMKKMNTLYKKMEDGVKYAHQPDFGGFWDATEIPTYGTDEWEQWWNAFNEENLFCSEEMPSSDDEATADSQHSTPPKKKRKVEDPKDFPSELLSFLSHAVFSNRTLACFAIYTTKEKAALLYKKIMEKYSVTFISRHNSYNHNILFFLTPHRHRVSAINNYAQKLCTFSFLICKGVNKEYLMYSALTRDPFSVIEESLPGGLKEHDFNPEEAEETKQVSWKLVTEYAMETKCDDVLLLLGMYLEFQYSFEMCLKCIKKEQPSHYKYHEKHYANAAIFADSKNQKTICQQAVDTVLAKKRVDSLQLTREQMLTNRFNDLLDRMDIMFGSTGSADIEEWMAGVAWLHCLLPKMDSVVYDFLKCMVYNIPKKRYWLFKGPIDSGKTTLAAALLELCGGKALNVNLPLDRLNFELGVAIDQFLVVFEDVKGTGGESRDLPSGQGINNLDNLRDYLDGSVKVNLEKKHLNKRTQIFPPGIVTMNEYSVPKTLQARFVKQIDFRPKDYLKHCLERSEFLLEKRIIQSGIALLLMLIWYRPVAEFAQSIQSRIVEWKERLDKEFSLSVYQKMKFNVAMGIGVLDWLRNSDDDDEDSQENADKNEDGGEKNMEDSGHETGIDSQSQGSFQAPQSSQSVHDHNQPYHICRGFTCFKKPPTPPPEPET
# Sequence of Genome polyprotein (P29990 2492-3391 limits assumed): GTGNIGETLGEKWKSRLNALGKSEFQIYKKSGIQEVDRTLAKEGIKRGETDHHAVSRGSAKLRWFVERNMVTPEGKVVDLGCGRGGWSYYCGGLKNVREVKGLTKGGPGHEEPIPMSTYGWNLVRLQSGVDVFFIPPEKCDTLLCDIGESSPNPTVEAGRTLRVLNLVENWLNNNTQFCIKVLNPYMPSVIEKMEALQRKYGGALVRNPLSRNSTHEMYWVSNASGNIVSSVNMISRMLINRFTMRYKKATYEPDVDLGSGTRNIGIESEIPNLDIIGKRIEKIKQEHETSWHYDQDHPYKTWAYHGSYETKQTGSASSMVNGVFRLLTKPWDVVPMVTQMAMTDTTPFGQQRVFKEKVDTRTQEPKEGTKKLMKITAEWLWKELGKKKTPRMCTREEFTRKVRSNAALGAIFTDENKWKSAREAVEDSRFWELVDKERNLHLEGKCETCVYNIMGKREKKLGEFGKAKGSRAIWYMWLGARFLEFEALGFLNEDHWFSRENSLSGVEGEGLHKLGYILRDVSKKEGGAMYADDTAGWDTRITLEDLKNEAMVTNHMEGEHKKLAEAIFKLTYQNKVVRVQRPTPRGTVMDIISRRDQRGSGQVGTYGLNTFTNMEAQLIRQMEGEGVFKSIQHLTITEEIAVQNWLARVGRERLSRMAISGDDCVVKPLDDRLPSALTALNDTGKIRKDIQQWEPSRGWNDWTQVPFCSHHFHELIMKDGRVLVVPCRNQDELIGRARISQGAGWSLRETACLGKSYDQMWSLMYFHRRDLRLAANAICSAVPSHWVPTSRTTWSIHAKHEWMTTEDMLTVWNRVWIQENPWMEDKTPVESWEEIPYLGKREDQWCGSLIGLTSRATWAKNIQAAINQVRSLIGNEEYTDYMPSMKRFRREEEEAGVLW
compound,measurement,setting,value
COc1ccc(/C=C2\SC(=O)NC2=S)cc1OC,AC50,[1],9.55 µM (active)
CCC(CC)C1=NN2C(=N)/C(=C\c3cc(C)n(-c4cccc(C)c4)c3C)C(=O)N=C2S1,IC50,[2],15.7 µM (active)
same,EC50,[3],17.8 µM (active)
same,EC50,[4],> 150 µM (not active)
same,EC50,[5],6.03 µM (active)
same,EC50,[6],7.3 µM (active)
same,IC50,[7],0.975 µM (active)
Oc1c(Br)cc(Br)c(/C=N/n2c(S)nnc2-c2ccccc2)c1Br,IC50,[2],7.7 µM (active)
same,IC50,[8],17.9 µM (active)
same,AC50,[9],8.53 µM (active)
same,EC50,[10],5.63 µM (active)
same,IC50,[7],36.8 µM (inactive)
same,IC50,[11],28.2 µM (active)
same,IC50,[12],13.2 µM (active)
Nc1nonc1-n1nnc(C(=O)N/N=C/c2ccc3c(c2)OCO3)c1CSc1ccccc1,EC50,[13],> 99 µM (inactive)
same,EC50,[14],> 99 µM (inactive)
O=C(O)c1cc([N+](=O)[O-])ccc1NCc1ccccc1Cl,IC50,[2],11.9 µM (active)
same,IC50,[15],> 50 µM (not active)
same,IC50,[7],9.55 µM (active)
Nc1ncc(Br)cc1S(=O)(=O)Nc1cc(C(F)(F)F)cc(C(F)(F)F)c1,IC50,[2],8.94 µM (active)
same,EC50,[3],19.9 µM (active)
same,EC50,[4],3.32 µM (active)
same,EC50,[16],0.341 µM (active)
same,IC50,[17],4.01 µM (active)
same,EC50,[18],18.2 µM (active)
same,EC50,[6],6.6 µM (active)
same,IC50,[7],8.69 µM (active)
same,IC50,[12],9.12 µM (active)
COc1cc(/C=C2\SC(=S)N(NC(=O)c3cccc(O)c3)C2=O)ccc1O,AC50,[1],6.23 µM (active)
same,AC50,[19],32 µM (inactive)
same,IC50,[20],54.8 µM (active)
CC(=O)Nc1cccc(C(=O)/C=C/c2ccc(N(C)C)cc2)c1,EC50,[13],> 99 µM (inactive)
same,EC50,[14],> 99 µM (inactive)
